As usually defined, the inhibition is the relative decrease from the control value, in per cent.

SMILES strings stand for the structures.

For one assay, the system named is ALOMY (blackgrass). The assay can be described thus: Pre-emergence herbicidal activity, cool season. Format: in vivo, Alopecurus myosuroides. The conditions noted are these: GR80 = lowest tested rate (300, 100, 30, 10 g/ha) with 80% or greater inhibition; approx. 14 days after treating; 18/13° C. In outline:
(§1)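 Activity is expressed as the rate giving 80% inhibition, with 300, 100, 30 and 10 g/ha typically tested. An asterisk marks activity short of 80% at the top rate. Warm-season grasses were held at 30/21 °C; cool-season blackgrass and wild buckwheat at 18/13 °C; scoring at about 14 days.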

Assay [1] concerns VERPE (creeping speedwell). The assay can be described thus: Pre-emergence herbicidal activity, cool season. Format: in vivo, Veronica persicaria. The conditions noted are these: lowest tested rate with 80% or greater inhibition; rates 300, 100, 30, 10 g/ha; about 14 days. A digest of the protocol: (§2)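 GR80 values derive from percent inhibition relative to untreated plants, read roughly 14 days after sowing and pre-emergence soil-surface treatment (compound in 50:50 acetone/water; rates typically 10, 30, 100, 300 g/ha). Warm-season weeds grew at 30/21° C day/night, cool-season ones at 18/13° C; an asterisk marks activity without reaching 80% at the highest rate.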

Assay [2] relates to GALAP (catchweed bedstraw). Kind of assay: Pre-emergence herbicidal activity, cool season. Type of assay: in vivo, Galium aparine. Particulars: lowest tested rate with 80% or greater inhibition; rates 300, 100, 30, 10 g/ha; about 14 days. In outline:
as §2

For the next assay, the system named is ECHCG (barnyardgrass). Kind of assay: Pre-emergence herbicidal activity, warm season. Format: in vivo, Echinochloa crus-galli. The conditions noted are these: for Pre-emergence activity (GR80) ECHCG: GR80 = lowest tested rate (300, 100, 30, 10 g/ha) with 80% or greater inhibition, approx. 14 days after treating, 30/21° C. A digest of the protocol:
as §1

For assay [3], the system named is SETFA (giant foxtail). Kind of assay: Pre-emergence herbicidal activity, warm season. Particulars: for Pre-emergence activity (GR80) SETFA: GR80 = lowest tested rate (300, 100, 30, 10 g/ha) with 80% or greater inhibition, approx. 14 days after treating, 30/21° C. Type of assay: in vivo, Setaria faberi. In outline:
as §1

A further assay concerns DIGSA (large crabgrass). Kind of assay: Pre-plant incorporated (PPI) herbicidal activity, warm season. Type of assay: in vivo, Digitaria sanguinalis. The procedure:
(§3) In another set of tests, the pre-plant incorporated (PPI) activity of compounds of this invention was evaluated on the same species as for the pre-emergence tests described above. In the PPI tests the following procedure, designed to simulate PPI application, was used.
(§4) A pre-prepared topsoil mixture (described above) was placed in a pot and compacted to a depth of 1.0 to 1.25 cm from the top of the pot. Seeds of each of several monocotyledonous and dicotyledonous annual plant species were placed on top of the soil. A sufficient quantity of soil to cover the seeds and level fill the pot was weighed into an open container. A known amount of the test compound was dissolved or suspended in an organic solvent and applied by spraying to this cover soil. The cover soil was thoroughly mixed to distribute the test compound throughout the cover soil, and was then applied as a cover layer over the seeds. Untreated soil was used as a cover layer for control pots. After treatment the plants were placed in a greenhouse where they received 0.64 cm of overhead irrigation. All subsequent watering consisted of a light overhead mist and/or subirrigation as needed for germination and growth. Tables 9 and 10 below relate to warm season plant species which were placed after pre-emergence treatment in a greenhouse with a 30/21° C. day/night temperature regime. Tables 11 and 12 below relates to cool season plant species placed after pre-emergence treatment in a greenhouse or growth chamber with an 18/13° C. day/night temperature regime. Only the compounds of Examples 1, 6, 8, 11, 13 and 15-20 were included in PPI tests.
(§5) Approximately 14 days after planting and treating, the plants were observed and herbicidal efficacy recorded as percent inhibition by comparison with untreated plants.

In assay [4] the test system is SETFA (giant foxtail). Described as above. Type of assay: in vivo, Setaria faberi. The protocol:
as §3, §4, §5

The test system of assay [5] is SORHA (johnsongrass (seedling)). Described as above. Type of assay: in vivo, Sorghum halepense. The protocol: as §3, §4, §5
The subject of a further assay is SINAR (wild mustard). The assay can be described thus: Pre-plant incorporated (PPI) herbicidal activity, cool season. Format: in vivo, Sinapis arvensis. Particulars: pre-plant incorporated; lowest tested rate with 80% or greater inhibition; about 14 days. The procedure:
as §3, §4, §5

For the next assay, the system named is corn (ZEAMX). The assay can be described thus: Selectivity test, PPI, warm season crop. Type of assay: in vivo, Zea mays. Particulars: Zea mays, PPI application, read-out: Percent inhibition ZEAMX. The procedure:
as §4, §5
Additional pre-emergence and PPI tests were conducted by the procedures described above, on warm and cool season weed species in the presence of crop species, to assess herbicidal selectivity. Crop species included in warm season tests were corn (Zea mays, ZEAMX), rice (Oryza sativa, ORYSA) and soybean (Glycine max, GLYMX). Crop species included in cool season tests were wheat (Triticum aestivum, TRZAW), barley (Hordeunm vulgare, HORVX) and oilseed rape (Brassica napus, BRSNS).
Tables 15 and 16 relate to pre-emergence and PPI tests respectively on warm season species. Table 17 relates to pre-emergence tests on cool season species.

[6] abbreviates: pre-plant incorporated, lowest tested rate with 80% or greater inhibition, about 14 days.

For the compound `CCN(CC)C(=O)n1cnc(S(=O)(=O)C(F)(F)C(F)(F)SC)n1` [Example 14], the “Pre-emergence activity (GR80) ALOMY” value in the assay with ALOMY (blackgrass) amounted to 100 g/ha. Besides, the “Pre-emergence activity GR80, VERPE” value in assay [1] came to 300 g/ha. For the same compound, the “Pre-emergence activity GR80, GALAP” value in [2] turned out to be 30 g/ha. Further, the “Pre-emergence activity (GR80) ECHCG” value with ECHCG (barnyardgrass) is 300 g/ha. Further, the “Pre-emergence activity (GR80) SETFA” value with SETFA (giant foxtail) [3] amounted to 100 g/ha.

Regarding `CCN(CC)C(=O)n1cnc(S(=O)(=O)C(F)F)n1` [Example 15, 1-(N,N-diethylcarbamoyl)-3-(difluoromethylsulfonyl)-1,2,4-triazole], the inhibition at 10 g/ha in the assay with DIGSA (large crabgrass) (Digitaria sanguinalis, PPI application, 10 g/ha, read-out: Percent inhibition DIGSA) was determined as 90%; in assay [5] (Sorghum halepense, PPI application, 10 g/ha, read-out: Percent inhibition SORHA), 40%; in the assay on ECHCG (barnyardgrass) (Echinochloa crus-galli, pre-emergence application, 10 g/ha, read-out: Percent inhibition, weed ECHCG) it was 0%; in the assay with corn (ZEAMX) (10 g/ha), 0%; in the assay with SETFA (giant foxtail) [3] (Setaria faberi, pre-emergence application, 10 g/ha, read-out: Percent inhibition, weed SETFA), 0%. Moreover, the inhibition at 30 g/ha was 70% in the assay on DIGSA (large crabgrass) (Digitaria sanguinalis, PPI application, 30 g/ha, read-out: Percent inhibition DIGSA); 40% with SETFA (giant foxtail) [4] (Setaria faberi, PPI application, 30 g/ha, read-out: Percent inhibition SETFA); 20% in assay [5] (Sorghum halepense, PPI application, 30 g/ha, read-out: Percent inhibition SORHA); 0% in the assay on ECHCG (barnyardgrass) (Echinochloa crus-galli, pre-emergence application, 30 g/ha, read-out: Percent inhibition, weed ECHCG); 0% in the assay with corn (ZEAMX) (30 g/ha); 0% with SETFA (giant foxtail) [3] (Setaria faberi, pre-emergence application, 30 g/ha, read-out: Percent inhibition, weed SETFA). The inhibition at 100 g/ha amounted to 100% in the assay with DIGSA (large crabgrass) (Digitaria sanguinalis, PPI application, 100 g/ha, read-out: Percent inhibition DIGSA); 99% in the assay on SETFA (giant foxtail) [4] (Setaria faberi, PPI application, 100 g/ha, read-out: Percent inhibition SETFA); 100% in assay [5] (Sorghum halepense, PPI application, 100 g/ha, read-out: Percent inhibition SORHA); 20% in the assay on ECHCG (barnyardgrass) (Echinochloa crus-galli, pre-emergence application, 100 g/ha, read-out: Percent inhibition, weed ECHCG); 20% with corn (ZEAMX) (100 g/ha); 99% in the assay on SETFA (giant foxtail) [3] (Setaria faberi, pre-emergence application, 100 g/ha, read-out: Percent inhibition, weed SETFA). Also, the inhibition at 300 g/ha was found to be 100% in the assay on DIGSA (large crabgrass) (Digitaria sanguinalis, PPI application, 300 g/ha, read-out: Percent inhibition DIGSA); 100% with SETFA (giant foxtail) [4] (Setaria faberi, PPI application, 300 g/ha, read-out: Percent inhibition SETFA); 100% in assay [5] (Sorghum halepense, PPI application, 300 g/ha, read-out: Percent inhibition SORHA); 60% in the assay on ECHCG (barnyardgrass) (Echinochloa crus-galli, pre-emergence application, 300 g/ha, read-out: Percent inhibition, weed ECHCG); 60% in the assay on corn (ZEAMX) (300 g/ha); 70% in the assay on SETFA (giant foxtail) [3] (Setaria faberi, pre-emergence application, 300 g/ha, read-out: Percent inhibition, weed SETFA). Further, the inhibition at 900 g/ha in the assay with DIGSA (large crabgrass) (Digitaria sanguinalis, PPI application, 900 g/ha, read-out: Percent inhibition DIGSA) came out at 100%; in the assay with SETFA (giant foxtail) [4] (Setaria faberi, PPI application, 900 g/ha, read-out: Percent inhibition SETFA), 100%; in assay [5] (Sorghum halepense, PPI application, 900 g/ha, read-out: Percent inhibition SORHA) it was 95%; in the assay on ECHCG (barnyardgrass) (Echinochloa crus-galli, pre-emergence application, 900 g/ha, read-out: Percent inhibition, weed ECHCG) it was 70%; in the assay with corn (ZEAMX) (900 g/ha) it was 85%; with SETFA (giant foxtail) [3] (Setaria faberi, pre-emergence application, 900 g/ha, read-out: Percent inhibition, weed SETFA), 100%. For the same compound, the “PPI activity GR80, DIGSA” value in the assay on DIGSA (large crabgrass) (setting [6]) came to 100 g/ha. Besides, the “PPI activity GR80, SETFA” value with SETFA (giant foxtail) [4] (setting [6]) came out at 30 g/ha. For the same compound, in assay [5] (setting [6]), the “PPI activity GR80, SORHA” value was found to be 30 g/ha. Also, the “PPI activity GR80, SINAR” value in the assay on SINAR (wild mustard) stood at 100 g/ha. Also, the “Pre-emergence activity (GR80) ECHCG” value in the assay with ECHCG (barnyardgrass) stood at 100 g/ha. In addition, in the assay with SETFA (giant foxtail) [3], the “Pre-emergence activity (GR80) SETFA” value was determined as 100 g/ha.

The values are drawn from US6461997B1, “Triazole sulfones having herbicidal activity” (Monsanto Technology LLC, priority 1999, dated 2002).
